Where a name gives a salt, the structure may show the parent alone.
Legend:
IRAK4 [1] = biological target: T1, IRAK4 (Homo sapiens, UniProt Q9NWZ3); test: ALE THP1 HTRF (IRAK4 in THP1 cell lysates, Homogeneous Time Resolved Fluorescence); type: cell-based; parameters: THP1 Homogeneous Time Resolved Fluorescence (ALE THP1 HTRF) Procedure; endogenous in cells; host or cells: THP1; details: THP1 cells
T1 sequence (Q9NWZ3 1-460): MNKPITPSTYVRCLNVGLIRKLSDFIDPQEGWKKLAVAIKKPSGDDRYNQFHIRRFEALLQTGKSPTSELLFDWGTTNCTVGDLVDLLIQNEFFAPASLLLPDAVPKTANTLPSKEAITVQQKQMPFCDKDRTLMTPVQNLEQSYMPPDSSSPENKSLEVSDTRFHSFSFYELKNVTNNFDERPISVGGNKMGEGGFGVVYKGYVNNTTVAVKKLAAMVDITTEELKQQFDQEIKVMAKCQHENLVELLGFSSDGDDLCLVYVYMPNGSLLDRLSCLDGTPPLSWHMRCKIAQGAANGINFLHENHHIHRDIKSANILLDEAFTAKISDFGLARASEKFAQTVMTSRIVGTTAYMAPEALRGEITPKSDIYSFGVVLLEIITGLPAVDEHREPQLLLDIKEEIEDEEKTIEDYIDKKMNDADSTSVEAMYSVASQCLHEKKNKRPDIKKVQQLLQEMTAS
Method: Cell culture media was prepared in a tissue culture hood in a sterile environment by adding 10% FBS and 1% Penicillin Streptomycin to 500 mL no phenol red RPMI 1640 media. The media was filtered through a Nalgene Bottle Top Filter and stored at 4° C.
For Homogenous Time Resolved Fluorescence (HTRF) assays, a Cisbio HTRF kit was used, which included: Lysis Buffer #1 4×, Blocking Reagent #3 100×, 20× Antibody 1 (Anti-IRAK4 d2), 20× Antibody 2 (Anti-IRAK4 k), and Detection Buffer.
4× Lysis Buffer was stored at 4° C. For use as 1× Lysis buffer, the 4× solution was diluted with de-ionized water (distilled water, Gibco Cat. #15230279) and 100× Blocking Reagent in a 1:3:0.04 volume ratio.
20× Antibody Solution aliquots were stored in −80° C. and the Detection Buffer was stored in 4° C. For use as a 1× Antibody Solution, the 20× Antibody Solution aliquot was diluted with Detection Buffer in a 1:19 volume ratio.
Cells were lysed at room temperature for 45 min with shaking. A BCA protein assay was performed and normalization was conducted to the desired total protein concentration with 1× lysis buffer. Next, 1× Antibody Solutions were prepared by adding 380 μL Detection Buffer to 20 μL 20× Antibody Solution aliquots and mixing well. 1× Antibody Solutions were combined 1:1 and briefly vortexed. For control wells, 20 μL 1× anti IRAK4-k Antibody Solution was saved. The 384-well plate (ProxiPlate-384 Plus, Perkin Elmer Cat. #6008289) was loaded by adding 4 μL of the mixed Antibody Solution to empty wells using a single channel repeater. Using a multi-channel repeater, 16 μL lysate was added per well, and any bubbles that were formed were popped with 20 μL pipette tips and Kimwipe edges. In column 10, triplicates of each control was prepared. In wells A10, B10, and C10, buffer control was prepared by adding 16 μL Lysis Buffer and 4 μL Detection Buffer. In wells D10, E10, and F10, cryptate control was prepared by adding 16 μL Lysis Buffer, 2 μL Detection Buffer, and 2 μL 1× anti IRAK4-k Antibody Solution. In wells G10, H10, and 110, a negative control was prepared by adding 16 μL Lysis Buffer and 4 μL mixed Antibody Solution. The plate was sealed with a clear seal and covered with an aluminum lid. The plate was spun down at 800 g for 5 min and incubated in the dark at room temperature overnight. The next day, the plate was spun down at 800 g for 5 min. The samples were analyzed by a plate reader (Envision, PerkinElmer) using the Desnor 384 HTRF program.

IRAK4 [2] = biological target: T1, IRAK4; test: IRAK4 PhosphoSens Biochemical Assay (BIOCHEM); details: 200 μM ATP, 10 μM peptide substrate AQT0326, 1 nM IRAK4, room temperature, 240 minutes
Method: The PhosphoSens® biochemical assay was performed as described by the vendor (AssayQuant Technologies Inc. Marlborough, MA). A 1.25× stock solution of IRAK4 (PV4002, ThermoFisher Scientific, Waltham, MA) and a 5× stock solution of ATP and Sox conjugated peptide substrate, AQT0326 (CSKS-AQT0326B, AssayQuant Technologies), were prepared in 1× kinase reaction buffer consisting of 50 mM HEPES, pH 7.5, 0.01% Brij-35, 0.5 mM EGTA, 20 mM MgCl2 and 1 mM DTT. 10 μL of the ATP and substrate solution mix, for a final concentration of 200 μM ATP and 10 μM peptide substrate, was added to a Coming 3574 384-well, white, non-binding surface microtiter plate containing 0.5 μL of serially diluted test compounds prepared in DMSO. The reactions were started with the addition of 40 μL of the enzyme solution, for a final IRAK4 concentration of 1 nM, and monitored every 71 seconds for 240 minutes at λEX 360/λEM 485 in a BioTek Synergy H4 plate reader (Agilent Technologies, Santa Clara, CA) at room temperature. The initial linear portions of the progress curves were fit according to a linear equation to yield the slopes and converted to % inhibition based on a value of 100% activity for the no inhibitor treated control. IC50 values of each compound were obtained by fitting the % inhibition-compound concentration curves using Dotmatics software (Dotmatics, Bishops Stortford, Hertfordshire, England).

IRAK4 [3] = biological target: T1, IRAK4; test: IRAK4 PhosphoSens Biochemical Assay (BIOCHEM); details: 200 μM ATP, 10 μM peptide substrate AQT0326, 1 nM IRAK4, room temperature, 240 minutes; remark: listed apart in the source

Structure (SMILES): CN(CC1CCC(n2cc(NC(=O)c3cnn4ccc(N5Cc6cnn(C)c6C5)nc34)c(C(F)F)n2)CC1)C1CCN(c2ccc3c(C4CCC(=O)NC4=O)nn(C)c3c2)CC1 (centres unmarked) [P-49]
- EC50 (IRAK4 [1]): > 10000 nM
- IC50 (IRAK4 [2]): 0.8 nM

Structure (SMILES): CN(CC1CCC(n2cc(NC(=O)c3cnn4ccc(N5CC[C@H](C#N)C5)nc34)c(C(F)F)n2)CC1)C1CCN(c2ccc3c(C4CCC(=O)NC4=O)nn(C)c3c2)CC1 (some centres unmarked) [P-50]
- EC50 (IRAK4 [1]): > 10000 nM
- IC50 (IRAK4 [2]): 0.8 nM

Structure (SMILES): Cn1nc(C2CCC(=O)NC2=O)c2ccc(N[C@H]3CCN(CC4CCC(n5cc(NC(=O)c6cnn7ccc(N8C[C@H](N)C[C@@H](F)C8)nc67)c(C(F)F)n5)CC4)C[C@@H]3F)cc21 (some centres unmarked) [P-25]
- EC50 (IRAK4 [1]): 8 nM
- IC50 (IRAK4 [2]): < 0.5 nM

Structure (SMILES): Cn1nc(C2CCC(=O)NC2=O)c2ccc(NC3CCN(CC4CCC(n5cc(NC(=O)c6cnn7ccc(N8CC[C@@H](F)[C@@H](N)C8)nc67)c(C(F)F)n5)CC4)CC3)cc21 (some centres unmarked) [P-21]
- EC50 (IRAK4 [1]): > 10000 nM
- IC50 (IRAK4 [2]): < 0.5 nM

Structure (SMILES): Cn1nc(C2CCC(=O)NC2=O)c2ccc(N[C@@H]3CCN(CC4CCC(n5cc(NC(=O)c6cnn7ccc(N8C[C@H](N)C[C@@H](F)C8)nc67)c(C(F)F)n5)CC4)C[C@@H]3F)cc21 (some centres unmarked) [P-24]
- EC50 (IRAK4 [1]): 4 nM
- IC50 (IRAK4 [2]): < 0.5 nM

Structure (SMILES): Cn1nc(C2CCC(=O)NC2=O)c2ccc(NC3CCN(CC4CCC(n5cc(NC(=O)c6cnn7ccc(N8C[C@H](N)C[C@@H](F)C8)nc67)c(C(F)F)n5)CC4)CC3)cc21 (stereo partly drawn) [P-2, N-[3-(difluoromethyl)-1-[4-[[4-[[3-(2,6-dioxo-3-piperidyl)-1-methyl-indazol-6-yl]amino]-1-piperidyl]methyl]cyclohexyl]pyrazol-4-yl]-5-[(3R,5R)-3-amino-5-fluoro-1-piperidyl]pyrazolo[1,5-a]pyrimidine-3-carboxamide]
- EC50 (IRAK4 [1]): 4 nM
- IC50 (IRAK4 [2]): < 0.5 nM

Structure (SMILES): Cn1nc(C2CCC(=O)NC2=O)c2cccc(NC3CCN(CC4CCC(n5cc(NC(=O)c6cnn7ccc(N8C[C@H](N)C[C@@H](F)C8)nc67)c(C(F)F)n5)CC4)CC3)c21 (some centres unmarked) [P-3]
- EC50 (IRAK4 [1]): 8 nM
- IC50 (IRAK4 [2]): < 0.5 nM

Structure (SMILES): CN(CC1CCC(n2cc(NC(=O)c3cnn4ccc(N5C[C@H](N)C[C@@H](F)C5)nc34)c(C(F)F)n2)CC1)C1CCN(c2cccc3c(C4CCC(=O)NC4=O)nn(C)c23)CC1 (stereo partly drawn) [P-30, N-[3-(difluoromethyl)-1-[4-[[[1-[3-(2,6-dioxo-3-piperidyl)-1-methyl-indazol-7-yl]-4-piperidyl]-methyl-amino]methyl]cyclohexyl]pyrazol-4-yl]-5-[(3R,5R)-3-amino-5-fluoro-1-piperidyl]pyrazolo[1,5-a]pyrimidine-3-carboxamide]
- EC50 (IRAK4 [1]): 14 nM
- IC50 (IRAK4 [2]): < 0.5 nM

Structure (SMILES): Cn1nc(C2CCC(=O)NC2=O)c2ccc(NC3CCN(CC[C@H]4CC[C@H](n5cc(NC(=O)c6cnn7ccc(N8C[C@H](N)C[C@@H](F)C8)nc67)c(C(F)F)n5)CC4)CC3)cc21 (some centres unmarked) [P-16]
- IC50 (IRAK4 [3]): < 0.5 nM
- EC50 (IRAK4 [1]): 5 nM

Structure (SMILES): Cn1nc(C2CCC(=O)NC2=O)c2ccc(NC3CCN(C[C@H]4CC[C@H](n5cc(NC(=O)c6cnn7ccc(N8C[C@H](N)CC(F)(F)C8)nc67)c(C(F)F)n5)CC4)CC3)cc21 (some centres unmarked) [P-20]
- IC50 (IRAK4 [3]): < 0.5 nM
- EC50 (IRAK4 [1]): 5 nM

Structure (SMILES): Cn1nc(C2CCC(=O)NC2=O)c2cccc(N3CCC(NC(=O)[C@H]4CC[C@H](n5cc(NC(=O)c6cnn7ccc(N8C[C@H](N)C[C@@H](F)C8)nc67)c(C(F)F)n5)CC4)CC3)c21 (some centres unmarked) [P-6]
- IC50 (IRAK4 [3]): < 0.5 nM
- EC50 (IRAK4 [1]): 5 nM

Structure (SMILES): Cn1nc(C2CCC(=O)NC2=O)c2ccc(NC3CC4(C3)CN(CC3CCC(n5cc(NC(=O)c6cnn7ccc(N8C[C@H](N)C[C@@H](F)C8)nc67)c(C(F)F)n5)CC3)C4)cc21 (some centres unmarked) [P-12]
- IC50 (IRAK4 [3]): < 0.5 nM
- EC50 (IRAK4 [1]): 6 nM

Structure (SMILES): Cn1nc(C2CCC(=O)NC2=O)c2ccc(N3CCN(CCN4CCC(n5cc(NC(=O)c6cnn7ccc(N8C[C@H](N)C[C@@H](F)C8)nc67)c(C(F)F)n5)CC4)CC3)cc21 (stereo partly drawn) [P-40, N-[3-(Difluoromethyl)-1-[1-[2-[4-[3-(2,6-dioxo-3-piperidyl)-1-methyl-indazol-6-yl]piperazin-1-yl]ethyl]-4-piperidyl]pyrazol-4-yl]-5-[(3R,5R)-3-amino-5-fluoro-1-piperidyl]pyrazolo[1,5-a]pyrimidine-3-carboxamide]
- IC50 (IRAK4 [3]): < 0.5 nM
- EC50 (IRAK4 [1]): 6 nM

Structure (SMILES): Cn1nc(C2CCC(=O)NC2=O)c2ccc(C(=O)N3CCN(C[C@H]4CC[C@H](n5cc(NC(=O)c6cnn7ccc(N8C[C@H](N)C[C@@H](F)C8)nc67)c(C(F)F)n5)CC4)CC3)cc21 (some centres unmarked) [P-17]
- IC50 (IRAK4 [3]): < 0.5 nM
- EC50 (IRAK4 [1]): 1 nM

Structure (SMILES): Cn1nc(C2CCC(=O)NC2=O)c2ccc(N3CCN(CC[C@H]4CC[C@H](n5cc(NC(=O)c6cnn7ccc(N8C[C@H](N)C[C@@H](F)C8)nc67)c(C(F)F)n5)CC4)CC3)cc21 (some centres unmarked) [P-10]
- IC50 (IRAK4 [3]): < 0.5 nM
- EC50 (IRAK4 [1]): 14 nM

Structure (SMILES): Cn1nc(C2CCC(=O)NC2=O)c2cccc(N3CCC(NC[C@H]4CC[C@H](n5cc(NC(=O)c6cnn7ccc(N8C[C@H](N)C[C@@H](F)C8)nc67)c(C(F)F)n5)CC4)CC3)c21 (some centres unmarked) [P-15]
- IC50 (IRAK4 [3]): < 0.5 nM
- EC50 (IRAK4 [1]): 10 nM

Structure (SMILES): Cn1nc(C2CCC(=O)NC2=O)c2ccc(N3CCC(NC[C@H]4CC[C@H](n5cc(NC(=O)c6cnn7ccc(N8C[C@H](N)C[C@@H](F)C8)nc67)c(C(F)F)n5)CC4)CC3)cc21 (stereo partly drawn) [P-5, 5-((3R,5R)-3-Amino-5-fluoropiperidin-1-yl)-N-(3-(difluoromethyl)-1-((1r,4r)-4-(((1-(3-(2,6-dioxopiperidin-3-yl)-1-methyl-1H-indazol-6-yl)piperidin-4-yl)amino)methyl)cyclohexyl)-1H-pyrazol-4-yl)pyrazolo[1,5-a]pyrimidine-3-carboxamide dihydrochloride]
- IC50 (IRAK4 [3]): < 0.5 nM
- EC50 (IRAK4 [1]): 5 nM

Structure (SMILES): CN(C[C@H]1CC[C@H](n2cc(NC(=O)c3cnn4ccc(NCc5ccccn5)nc34)c(C(F)F)n2)CC1)C1CCN(c2ccc3c(C4CCC(=O)NC4=O)nn(C)c3c2)CC1 (some centres unmarked) [P-44]
- IC50 (IRAK4 [3]): 7.3 nM
- EC50 (IRAK4 [1]): > 10000 nM

Structure (SMILES): Cn1nc(C2CCC(=O)NC2=O)c2cccc(NC3CCN(CCC4CCC(n5cc(NC(=O)c6cnn7ccc(N8C[C@H](N)C[C@@H](F)C8)nc67)c(C(F)F)n5)CC4)CC3)c21 (stereo partly drawn) [P-7, N-[3-(difluoromethyl)-1-[4-[2-[4-[[3-(2,6-dioxo-3-piperidyl)-1-methyl-indazol-7-yl]amino]-1-piperidyl]ethyl]cyclohexyl]pyrazol-4-yl]-5-[(3R,5R)-3-amino-5-fluoro-1-piperidyl]pyrazolo[1,5-a]pyrimidine-3-carboxamide bis-HCl salt]
- IC50 (IRAK4 [3]): < 0.5 nM
- EC50 (IRAK4 [1]): 12 nM

Reference: patent US20260327232A1, “Heteroaryl Compounds as Ligand Directed Degraders of IRAK4” (Celgene Corporation, priority 2023, published 2026)
